In ChEMBL document CHEMBL1828504, “Synthesis and SAR optimization of diketo acid pharmacophore for HCV NS5B polymerase inhibition” (Eur J Med Chem, 2011):

Assay: Inhibition of recombinant HCV NS5B Cdelta21 polymerase assessed as [alpha-32P]UMP incorporation into RNA after 1 hr by liquid scintillation counting
Set-up: species or system Hepacivirus hominis

| Structure (SMILES) | IC50 [µM] |
| --- | --- |
| O=C(O)/C(O)=C/C(=O)c1cccc(-c2nnn[nH]2)c1 | 5.2 |
| O=C(O)/C(O)=C/C(=O)c1c(F)cccc1F | 17 |
| CCOC(=O)/C(O)=C/C(=O)c1ccccc1F | 12.4 |
| O=C(O)/C(O)=C/C(=O)c1ccc(Br)s1 | 31.4 |
| O=C(O)/C(O)=C/C(=O)c1cc2cc(Br)ccc2o1 | 8.2 |
| O=C(O)/C(O)=C/C(=O)c1ccccc1F | 14.9 |
| O=C(O)/C(O)=C/C(=O)c1ccc(-c2ccccc2)cc1 | 20.9 |
| Cc1csc(C(=O)/C=C(\O)C(=O)O)c1 | 32.7 |
| O=C(O)/C(O)=C/C(=O)c1n[nH]c2ccccc12 | 24.7 |
| N#Cc1cccc(C(=O)/C=C(\O)C(=O)O)c1 | 39.7 |
| O=C(O)/C(O)=C/C(=O)c1cc2ccccc2s1 | 37.7 |
| O=C(O)/C(O)=C/C(=O)c1ccc[nH]1 | 21.7 |
| O=C(O)/C(O)=C/C(=O)c1ccc(Cl)s1 | 25.5 |
| Cc1ccsc1C(=O)/C=C(\O)C(=O)O | 7.5 |
| Cc1ccccc1C(=O)/C=C(\O)C(=O)O | 6.9 |
| O=C(O)/C(O)=C/C(=O)c1ccc(I)s1 | 63.9 |
| O=C(O)/C(O)=C/C(=O)c1ccc(F)cc1F | 2.4 |
| O=C(O)/C(O)=C/C(=O)c1nccs1 | 30.4 |
| O=C(O)/C(O)=C/C(=O)c1cc2ccccc2o1 | 29.6 |
| O=C(O)/C(O)=C/C(=O)c1ccco1 | 21.8 |
| CCOC(=O)/C(O)=C/C(=O)c1n[nH]c2ccccc12 | 38.4 |
| O=C(O)/C(O)=C/C(=O)c1ccc(Cl)cc1Cl | 49.7 |
| O=C(O)/C(O)=C/C(=O)c1cccc(F)c1 | 49.9 |
| O=C(O)/C(O)=C/C(=O)c1cccs1 | 17.3 |
| Cc1ccc(C(=O)/C=C(\O)C(=O)O)s1 | 55.5 |
| O=C(O)/C(O)=C/C(=O)c1ccccc1[N+](=O)[O-] | 11.3 |
